Measured values reported in publication PMC6967409 (Frontiers in Chemistry, 2020).
“And” between values parts separate entries of the source, which are not always exact repeats. Equal values may be shown once. Read-outs that look alike come from different tables or passages of the source.

Legend:
[1] = tested on: asexual P. falciparum NF54, Dd2, K1, W2; experiment: Asexual P. falciparum, metabolic (pLDH) and proliferative (SYBR Green I) platforms; format: cell-based; settings: Plasmodium falciparum
Method: Data analysis was performed using GraphPad Prism 7.
The in vitro activities of the new derivatives were determined against drug sensitive NF54 and multi-drug resistant Dd2, K1, and W2 intraerythrocytic asexual P. falciparum malaria parasite strains using both a metabolic (parasite LDH) and a proliferative (SYBR Green I fluorescence) assay readout (Table 1).

[2] = tested on: P. falciparum NF54 late stage gametocytes (>90% stage IV and V); design: method as in Coertzen et al. (2018); settings: read-out: Late Stage (LG, Luc 72 h) IC50; >90% stage IV and V gametocytes; ref Coertzen et al. (2018); cited from earlier work
P. falciparum W2 [3] = tested on: P. falciparum W2; design: method as in Coertzen et al. (2018); settings: SYBR Green I; ref Coertzen et al. (2018); read-out: Proliferative IC50 W2; cited from earlier work
P. falciparum NF54 [4] = tested on: P. falciparum NF54; design: method as in Coertzen et al. (2018); settings: SYBR Green I; ref Coertzen et al. (2018); read-out: Proliferative IC50 NF54; cited from earlier work
P. falciparum Dd2 [5] = tested on: P. falciparum Dd2; design: method as in Coertzen et al. (2018); settings: pLDH, 48 h; ref Coertzen et al. (2018); read-out: Metabolic IC50 Dd2; cited from earlier work
P. falciparum K1 [6] = tested on: P. falciparum K1; design: method as in Coertzen et al. (2018); settings: SYBR Green I; ref Coertzen et al. (2018); read-out: Proliferative IC50 K1; cited from earlier work
[7] = tested on: P. falciparum NF54 early stage gametocytes (>90% stage I–III); design: method as in Coertzen et al. (2018); settings: read-out: Early Stage (EG, Luc 48 h) IC50; >90% stage I–III gametocytes; ref Coertzen et al. (2018); cited from earlier work
P. falciparum NF54 [8] = tested on: P. falciparum NF54; design: method as in Coertzen et al. (2018); settings: pLDH, 48 h; ref Coertzen et al. (2018); read-out: Metabolic IC50 NF54; cited from earlier work
[9] = tested on: P. falciparum NF54 early stage gametocytes (>90% stage I–III); experiment: Gametocytocidal luciferase reporter assay, early stage, 48 h; format: cell-based; settings: Plasmodium falciparum, NF54, 48 h, read-out: Early Stage (EG, Luc 48 h) IC50
Method: (§1) P. falciparum parasites (NF54, K1, and W2) were cultured in vitro in human erythrocytes (A^+ or O^+) under 90% N2, 5% CO2, and 5% O2 atmospheric conditions with supplemented RPMI 1640 media (Sigma Aldrich) containing Albumax II, as previously described (Verlinden et al., [2011]). This study was carried out according the guidelines set out by the Faculty of Health Sciences Ethical Committee, Ethical Clearance no. EC-120821/077. The protocol was approved by the Faculty of Health sciences ethical committee at the University of Pretoria. All subjects gave written informed consent in accordance with the Declaration of Helsinki. Parasite proliferation was monitored microscopically using Giemsa stained smears. Synchronized ring stage parasites (>95%) were obtained using a 5% D-sorbitol (Sigma Aldrich) treatment. […] Gametocyte cultures were kept stationary under 90% N2, 5% CO2, and 5% O2 atmospheric conditions at 37°C and treated with 50 mM N-acetyl-glucosamine (NAG) to eliminate residual invasion of asexual parasites.
(§2) Gametocytocidal activity was determined using the luciferase reporter line (Reader et al., [2015]) to derive dose responses with two-fold serial drug dilutions for 48 h against early stage gametocytes (day 5 post-induction population, >90% stage I–III) and 10-fold serial drug dilutions for 72 h against late stage gametocytes (day 10 post-induction population, >90% late stage IV–V) (2% gametocytemia, 2% hematocrit), at 37°C under 90% N2, 5% CO2, and 5% O2 atmospheric conditions.

P. falciparum W2 [10] = experiment: Proliferative (SYBR Green I) assay, asexual parasites, 96 h; format: cell-based; settings: Plasmodium falciparum, ±SEM
Method: as §1
(§3) Working solutions of the derivatives were prepared from a 10 mM stock solution in 100% DMSO in supplemented RPMI 1640 media containing Albumax II with a final DMSO concentration of <0.1%, previously determined as being non-toxic to intraerythrocytic asexual parasites and gametocytes. Dose responses were assayed using a two-fold serial drug dilution on in vitro >95% ring stage intraerythrocytic P. falciparum parasites at 37°C under 90% N2, 5% CO2, and 5% O2 atmospheric conditions, detecting both parasite lactate dehydrogenase (pLDH) activity as a metabolic marker following a 48 h drug exposure (1.5–2% parasitemia and 2% hematocrit; Makler et al., [1993]) and SYBR Green I fluorescence as proliferative marker following a 96 h drug exposure (1% parasitemia and 1% hematocrit). […] Data analysis was performed using GraphPad Prism 7.

P. falciparum K1 [11] = experiment: as above; format: cell-based; settings: Plasmodium falciparum, ±SEM
Method: as §1, §3

P. falciparum NF54 [12] = experiment: as above; format: cell-based; settings: Plasmodium falciparum, ±SEM
Method: as §1, §3

Cytotoxicity, MTT assay = format: cell-based; settings: Chinese hamster, CHO cells
Method: (§4) Cytotoxicity (EC50) was determined against Chinese hamster ovarian (CHO) using a 3-(4,5-dimethylthiazol-2-yl)-2,5-diphenyltetrazolium bromide (MTT) assay and hepatocellular carcinoma cells (HepG2) using the Cytoselect LDH cytotoxicity assay kit (Cell Biolabs).

P. falciparum NF54 [13] = experiment: Metabolic (parasite LDH) assay, asexual ring stage parasites, 48 h; format: cell-based; settings: Plasmodium falciparum, pLDH, CQ-sensitive NF54
Method: as §1, §3

[14] = Cytotoxicity, Cytoselect LDH cytotoxicity assay kit; format: cell-based; settings: human, HepG2 cells
Method: as §4

[15] = tested on: P. falciparum NF54 late stage gametocytes (>90% stage IV and V); experiment: Gametocytocidal luciferase reporter assay, late stage, 72 h; format: cell-based, Plasmodium falciparum; settings: Plasmodium falciparum, NF54, 72 h, read-out: Late Stage (LG, Luc 72 h) IC50, >90% stage IV and V gametocytes, ±SEM
Method: as §1, §2

[16] = HepG2 cytotoxicity bioluminescence assay (CellTiterGlo, ATP); format: cell-based, human; settings: human, uninfected HepG2-CD81 cells; for IC50 at 72 h: two biological replicates listed in one cell; for EC50 at 72 h: uninfected HepG2, ATP bioluminescence
Method: (§5) Briefly, HepG2-CD81 cells were seeded into 1,536 well plates containing 50 nL of test and control compounds diluted into DMSO. […] Next, 2 μL of luciferin reagent (Promega BrightGlo) was added to each well and luciferase activity was detected using a Perkin Elmer Envision plate reader. […] In parallel, plates were processed without sporozoites for HepG2 toxicity measurements.
(§6) In continuation of the transmission blocking theme, it is important to establish activities against liver stage parasites. […] This assay uses ultra-high-throughput screening methods optimized for a 1536-well format and a HepG2 human hepatoma cell line. […] To establish selectivity of the compounds for the parasite in the liver stage of infection, cytotoxicity was determined by measuring bioluminescence from the reaction between free ATP of compound-treated, uninfected hepatocytes and a luciferase reporter system.

HepG2 cells = experiment: as above; format: cell-based, human; settings: two biological replicates listed in one cell
Method: as §5, §6

P. falciparum Dd2 [17] = experiment: Metabolic (parasite LDH) assay, asexual ring stage parasites, 48 h; format: cell-based; settings: Plasmodium falciparum, pLDH, Dd2 CQ, pyrimethamine resistant
Method: as §3

[18] = tested on: P. berghei ANKA GFP-Luc-SMcon sporozoites; experiment: P. berghei-luciferase liver stage bioluminescence assay (causal prophylactic mode) in HepG2-CD81 cells; format: cell-based, Plasmodium berghei; settings: for Emax: 48 h, read-out: P.berghei-Luciferase Liver Stage Bioluminescence Assay: Maximum measured (%); for inhibition at 10 µM: read-out: P. berghei sporozoites Maximum inhibition %
Method: as §5, §6

[19] = drug-sensitive and -resistant parasites, both assay platforms, read-out: IC50, asexual P. falciparum metabolic activity and proliferation
[20] = Plasmodium berghei, two biological replicates listed in one cell
[21] = Plasmodium berghei, two biological replicates listed in one cell, read-out: P.berghei-Luciferase Liver Stage Bioluminescence Assay: IC50
[22] = read-out: IC50 for drug sensitive NF54 parasites across both assay platforms

Compound | IC50 [1, 19] | IC50 (P. falciparum W2 [10]) | IC50 (P. falciparum K1 [11]) | IC50 (P. falciparum NF54 [12]) | EC50 (Cytotoxicity, MTT assay) | IC50 (P. falciparum NF54 [13]) | EC50 [14] | IC50 [15] | IC50 at 72 h [16] | EC50 at 72 h [16] | IC50 (P. falciparum Dd2 [17]) | Emax [18, 20] | IC50 [18, 21] | IC50 [1, 22] | also measured
CCCCCCCCCCCCCCCCNC(=O)N1CCN([C@@H]2O[C@@H]3O[C@@]4(C)CC[C@H]5[C@H](C)CC[C@@H]([C@H]2C)[C@@]35OO4)CC1 [Compound 21] | 0.05 to 0.1 µM | – | – | – | – | – | – | – | – | – | – | – | – | – | –
CC1CCC2C(C)C(N3CCNCC3)OC3OC4(C)CCC1C32OO4 (centres unmarked) [DHA-piperazine 9] | – | – | – | – | – | – | – | – | – | – | – | – | – | – | IC50 [2]: 0.0257 ± 0.0175 µM; IC50 (P. falciparum W2 [3]): 0.0014 ± 0.0007 µM; IC50 (P. falciparum NF54 [4]): 0.0031 ± 0.0004 µM; IC50 (P. falciparum Dd2 [5]): 0.0017 ± 0.0002 µM; IC50 (P. falciparum K1 [6]): 0.0019 ± 0.0005 µM; IC50 [7]: 0.0549 ± 0.00511 µM; IC50 (P. falciparum NF54 [8]): 0.0032 ± 0.0014 µM
C[C@H]1[C@H](N2CCN(C(=O)Nc3ccc(C(F)(F)F)cc3)CC2)O[C@@H]2O[C@@]3(C)CC[C@H]4[C@H](C)CC[C@@H]1[C@@]24OO3 [Compound 23] | – | 0.00141 ± 9e-05 µM | 0.00112 ± 0.00013 µM | 0.00155 ± 8e-05 µM | 185 µM | 0.00183 ± 0.0002 µM | 0.453 µM | 0.001 ± 0.0003 µM | 6.99 µM | 5.45 µM | 0.0122 ± 0.0019 µM | 99.5% | 0.0796 µM | 0.001 to 0.002 µM | IC50 ([9]; >90% stage I–III gametocytes, ±SEM): 0.02 ± 0.0094 µM; HepG2 Cytotoxicity Bioluminescence Assay: Maximum measured (%) (HepG2 cells; listed as 23 (WHN-11)): 50.9% and 55.9%; IC50 (HepG2 cells; listed as 23 (WHN-11)): 3.91 µM; IC50 ([18]; Plasmodium berghei, HepG2, 48 h, liver stage, HepG2 host cells, luciferase after 48 h, ±SD, read-out: P. berghei sporozoites IC50): 0.0825 ± 0.00417 µM; inhibition at 10 µM ([18]; Plasmodium berghei, Conc. 10 μM): 105 ± 7.42%; IC50 ([18]; two biological replicates listed in one cell, listed as 23 (WHN-11), read-out: P.berghei-Luciferase Liver Stage Bioluminescence Assay: IC50): 0.0855 µM
C[C@H]1[C@H](N2CCN(C(=O)Nc3ccc(F)cc3)CC2)O[C@@H]2O[C@@]3(C)CC[C@H]4[C@H](C)CC[C@@H]1[C@@]24OO3 [Compound 24] | – | 0.00116 ± 0.00017 µM | 0.00085 ± 0.0001 µM | 0.0013 ± 0.0001 µM | 204 µM | 0.00121 ± 4e-05 µM | 0.34 µM | 0.017 ± 0.007 µM | 6.44 µM | 5.16 µM | 0.0092 ± 0.0019 µM | 99.2% | 0.101 µM | 0.001 to 0.002 µM | IC50 [9]: 0.036 ± 0.0102 µM; HepG2 Cytotoxicity Bioluminescence Assay: Maximum measured (%) (HepG2 cells; listed as 24 (WHN-12)): 59.5% and 66.1%; IC50 (HepG2 cells; listed as 24 (WHN-12)): 3.88 µM; IC50 ([18]; Plasmodium berghei, HepG2, 48 h, read-out: P. berghei sporozoites IC50, liver stage, HepG2 host cells, luciferase after 48 h, ±SD): 0.105 ± 0.00636 µM; inhibition at 10 µM ([18]; Plasmodium berghei): 94.8 ± 2.76%; IC50 ([18]; two biological replicates listed in one cell, listed as 24 (WHN-12), read-out: P.berghei-Luciferase Liver Stage Bioluminescence Assay: IC50): 0.11 µM
CCCCCCCCCCCCCCCCS(=O)(=O)N1CCN([C@@H]2O[C@@H]3O[C@@]4(C)CC[C@H]5[C@H](C)CC[C@@H]([C@H]2C)[C@@]35OO4)CC1 [Compound 14] | 0.05 to 0.1 µM | – | – | – | – | – | – | – | – | – | – | – | – | – | –
